Data: ChEMBL document CHEMBL5038643, “Phytochemical Investigation of the Roots of Ipomoea asarifolia and Antiproliferative Activity of the Isolated Compounds against Multiple Myeloma Cells” (J Nat Prod, 2022)
pIC50: −log10 of the molar value. The source made the active and inactive calls. No cut-off for these calls is given here.

Columns and labels:
[1] = system: B-cell; assay: Cytotoxicity against human B lymphocyte assessed as reduction in cell viability at 50 uM measured after 72 hrs by XTT assay; format: toxicity, cell-based
[2] = system: RPMI-8226; assay: Antiproliferative activity against human RPMI 8226 cells assessed as reduction in cell viability measured after 72 hrs by XTT assay; format: functional, cell-based; settings: RPMI-8226, 72 h
[3] = system: MM.1R; assay: Antiproliferative activity against dexamethasone-resistant human MM.1R cells assessed as reduction in cell viability at 10 uM measured after 72 hrs by XTT assay; format: functional, cell-based
[4] = Antiproliferative activity against dexamethasone-resistant human MM.1R cells assessed as reduction in cell viability measured after 72 hrs by XTT assay; format: functional, cell-based
[5] = system: MM1.S; assay: Antiproliferative activity against dexamethasone-sensitive human MM.1S cells assessed as reduction in cell viability measured after 72 hrs by XTT assay; format: functional, cell-based
[6] = system: MM1.S; assay: Antiproliferative activity against dexamethasone-sensitive human MM.1S cells assessed as reduction in cell viability at 10 uM measured after 72 hrs by XTT assay; format: functional, cell-based
[7] = system: RPMI-8226; assay: Antiproliferative activity against human RPMI 8226 cells assessed as reduction in cell viability at 10 uM measured after 72 hrs by XTT assay; format: functional, cell-based

Which results are given for `CCCCCCCCCCCCCCCCCCOC(=O)/C=C/c1ccc(O)c(O)c1`?
Activity [1]: Non-Toxic; pIC50 [2]: 5.03; Activity [3]: inactive; pIC50 [4]: < 5.00; pIC50 [5]: < 5.00; Activity [6]: inactive

With `CCCCCCCCCCCCCCCCOC(=O)/C=C/c1ccc(O)c(O)c1` as the molecule, how does the Activity [1] read?
Its Activity is “Non-Toxic”.

What about the pIC50 [2] of the same molecule?
Its pIC50 is 5.52.

And the Activity [3]?
Its Activity is “inactive”.

And the pIC50 [4]?
Its pIC50 is under 5.00.

And the pIC50 [5]?
The pIC50 was under 5.00.

And the Activity [6]?
Its Activity is “inactive”.

What does the source list for `CCCCCCCCCCCC(=O)O[C@H]1[C@H](O[C@@H]2[C@H]3OC(=O)CCCCCCCCC[C@H](CCCCC)O[C@@H]4O[C@H](C)[C@H](O)[C@H](O)[C@H]4O[C@H](O[C@H]2C)[C@@H]3O)O[C@@H](C)[C@H](O[C@@H]2O[C@@H](C)[C@H](OC(=O)CCCCCCC)[C@@H](O)[C@H]2O)[C@H]1O[C@@H]1O[C@@H](C)[C@H](O)[C@@H](O)[C@H]1O`?
pIC50 [2]: < 5.00; Activity [3]: inactive; Activity [7]: inactive; Activity [6]: inactive

With `C[C@H](CO)CC(=O)C[C@@H](C)CCC(=O)c1ccoc1` as the molecule, how does the pIC50 [2] read?
Its pIC50 is under 5.00.

What about the Activity [3] of the same molecule?
Its Activity is “inactive”.

And the Activity [6]?
The Activity was “inactive”.

Which results are given for `CCCCCCCCCCCCCCCCCCCCOC(=O)/C=C/c1ccc(O)cc1`?
Activity [3]: inactive; Activity [6]: inactive

Which results are given for `CCCCCCCCCCCCCCCCCCOC(=O)/C=C/c1ccc(O)cc1`?
Activity [3]: inactive; Activity [6]: inactive

Which Activity [3] does the source give for `CCCCCCCCCCCCCCCCOC(=O)/C=C/c1ccc(O)cc1` here?
The Activity was “inactive”.

What about the Activity [6] of the same molecule?
The Activity was “inactive”.

With `CC(C)C[C@H](NC(=O)[C@H](Cc1ccccc1)NC(=O)c1cnccn1)B(O)O` [BORTEZOMIB] as the molecule, how does the pIC50 [2] read?
Its pIC50 is 8.35.

And the Activity [3]?
Its Activity is “inactive”.

And the pIC50 [4]?
The pIC50 was 8.32.

And the pIC50 [5]?
Its pIC50 is 8.59.

And the Activity [6]?
Its Activity is “inactive”.

With `CCCCCCCCCCCC(=O)O[C@H]1[C@H](O[C@@H]2[C@H]3OC(=O)CCCCCCCCC[C@H](CCCCC)O[C@@H]4O[C@H](C)[C@H](O)[C@H](O)[C@H]4O[C@H](O[C@H]2C)[C@@H]3O)O[C@@H](C)[C@H](O[C@@H]2O[C@@H](C)[C@H](OC(=O)[C@@H](C)CC)[C@@H](O)[C@H]2O)[C@H]1O[C@@H]1O[C@@H](C)[C@H](O)[C@@H](O)[C@H]1O` [PESCAPREIN III] as the molecule, how does the pIC50 [2] read?
The pIC50 was under 5.00.

What about the Activity [3] of the same molecule?
The Activity was “inactive”.

And the Activity [6]?
The Activity was “inactive”.

With `CCCCCCCCCCCC(=O)O[C@H]1[C@H](O[C@@H]2[C@H]3OC(=O)CCCCCCCCC[C@H](CCCCC)O[C@@H]4O[C@H](C)[C@H](O)[C@H](O)[C@H]4O[C@H](O[C@H]2C)[C@@H]3O)O[C@@H](C)[C@H](O[C@@H]2O[C@@H](C)[C@H](OC(=O)CCCCC)[C@@H](O)[C@H]2O)[C@H]1O[C@@H]1O[C@@H](C)[C@H](O)[C@@H](O)[C@H]1O` [PESCAPREIN IV] as the molecule, how does the pIC50 [2] read?
Its pIC50 is 4.97.

And the Activity [3]?
Its Activity is “inactive”.

And the pIC50 [4]?
Its pIC50 is under 5.00.

And the pIC50 [5]?
Its pIC50 is under 5.00.

And the Activity [6]?
The Activity was “inactive”.

With `CCCCCCCCCC(=O)O[C@H]1[C@H](O[C@@H]2[C@H]3OC(=O)CCCCCCCCC[C@H](CCCCC)O[C@@H]4O[C@H](C)[C@H](O)[C@H](O)[C@H]4O[C@H](O[C@H]2C)[C@@H]3O)O[C@@H](C)[C@H](O[C@@H]2O[C@@H](C)[C@H](OC(=O)[C@@H](C)CC)[C@@H](OC(=O)/C=C/c3ccccc3)[C@H]2O)[C@H]1O[C@@H]1O[C@@H](C)[C@H](O)[C@@H](O)[C@H]1O` [PESCAPREIN XXIII] as the molecule, how does the pIC50 [2] read?
The pIC50 was under 5.00.

What about the Activity [3] of the same molecule?
Its Activity is “inactive”.

And the Activity [6]?
The Activity was “inactive”.

With `CCCCCCCCCCCC(=O)O[C@H]1[C@H](O[C@@H]2[C@H]3OC(=O)CCCCCCCCC[C@H](CCCCC)O[C@@H]4O[C@H](C)[C@H](O)[C@H](O)[C@H]4O[C@H](O[C@H]2C)[C@@H]3O)O[C@@H](C)[C@H](O[C@@H]2O[C@@H](C)[C@H](OC(=O)[C@@H](C)CC)[C@@H](OC(=O)/C=C/c3ccccc3)[C@H]2O)[C@H]1O[C@@H]1O[C@@H](C)[C@H](O)[C@@H](O)[C@H]1O` [PESCAPREIN XXI] as the molecule, how does the pIC50 [2] read?
Its pIC50 is under 5.00.

What about the Activity [3] of the same molecule?
The Activity was “inactive”.

And the Activity [6]?
The Activity was “inactive”.

With `CCCCCCCCCC(=O)O[C@H]1[C@H](O[C@@H]2[C@H]3OC(=O)CCCCCCCCC[C@H](CCCCC)O[C@@H]4O[C@H](C)[C@H](O)[C@H](O)[C@H]4O[C@H](O[C@H]2C)[C@@H]3O)O[C@@H](C)[C@H](O[C@@H]2O[C@@H](C)[C@H](OC(=O)C(C)C)[C@@H](OC(=O)/C=C/c3ccccc3)[C@H]2O)[C@H]1O[C@@H]1O[C@@H](C)[C@H](O)[C@@H](O)[C@H]1O` [PESCAPREIN XXVI] as the molecule, how does the pIC50 [2] read?
Its pIC50 is under 5.00.

What about the Activity [3] of the same molecule?
The Activity was “inactive”.

And the Activity [6]?
The Activity was “inactive”.

With `CCCCCCCCCCCC(=O)O[C@H]1[C@H](O[C@@H]2[C@H]3OC(=O)CCCCCCCCC[C@H](CCCCC)O[C@@H]4O[C@H](C)[C@H](O)[C@H](O)[C@H]4O[C@H](O[C@H]2C)[C@@H]3O)O[C@@H](C)[C@H](O[C@@H]2O[C@@H](C)[C@H](OC(=O)C(C)C)[C@@H](OC(=O)/C=C/c3ccccc3)[C@H]2O)[C@H]1O[C@@H]1O[C@@H](C)[C@H](O)[C@@H](O)[C@H]1O` [PESCAPREIN XXV] as the molecule, how does the pIC50 [2] read?
Its pIC50 is under 5.00.

What about the Activity [3] of the same molecule?
Its Activity is “inactive”.

What about the Activity [6] of the same molecule?
The Activity was “inactive”.

With `CCCCCCCCCC(=O)O[C@H]1[C@H](O[C@@H]2[C@H]3OC(=O)CCCCCCCCC[C@H](CCCCC)O[C@@H]4O[C@H](C)[C@H](O)[C@H](O)[C@H]4O[C@H](O[C@H]2C)[C@@H]3O)O[C@@H](C)[C@H](O[C@@H]2O[C@@H](C)[C@H](OC(=O)[C@@H](C)CC)[C@@H](O)[C@H]2O)[C@H]1O[C@@H]1O[C@@H](C)[C@H](O)[C@@H](O)[C@H]1O` [STOLONIFERIN III] as the molecule, how does the pIC50 [2] read?
The pIC50 was 5.11.

What about the Activity [3] of the same molecule?
Its Activity is “inactive”.

What about the pIC50 [4] of the same molecule?
The pIC50 was under 5.00.

What about the pIC50 [5] of the same molecule?
Its pIC50 is under 5.00.

And the Activity [6]?
The Activity was “inactive”.
